Data reported in patent publication US6953578B2, “Materials and methods for detection and treatment of immune system dysfunctions” (University of Florida Research Foundation, Inc., priority 1996, dated 2005).
Marks after values point to notes of the source that are not given here.

Columns and labels:
NOD mice [1] = test: Incidence of diabetes in NOD mice treated through drinking water; type: in vivo, mouse
Experimental: Blocking the activity of PGS-2 with drugs that reduce PG production can be used to prevent or slow the development of IDD disease. When NOD mice with established, active autoimmune disease are treated through their drinking water with a combination of drugs, including a PGS-1/PGS-2 inhibitor, low dose indomethacin (3 μg/ml), in conjunction with an inducible nitric oxide synthase (iNOS) inhibitor, aminoguanidine, which potentiates the effects of indomethacin, the incidence of diabetes in NOD mice drops by 42% in comparison to control animals and animals treated with either low dose indomethacin or aminoguanidine alone.
Treatment of NOD mice at a time when autoimmunity is in its final stages with high doses (15 μg/ml) of indomethacin alone reduces the incidence of diabetes from 77% to 22%.

monocytes [2] = test: Monokine production in monocyte culture supernatants with and without NS-398; type: cell-based, human; conditions: monocytes of healthy controls and pre-diabetic population
Description: The monocyte production of the monokines IL-1β, TNFα, IL-1RA, and IL-10 in culture supernatants from healthy controls and the pre-diabetic population in the presence and absence of the PGS-2-specific inhibitor, NS-398, have been evaluated. […] It has also been determined that, despite enhanced levels of PGS-2 and PGE2 in diabetic and pre-diabetic individuals, there is no corresponding increase in IL-10. […] Therefore, a further aspect of the subject invention is a method for detecting evidence of autoimmune disease, particularly diabetes, which comprises evaluating monocytes to determine if those monocytes have a reduced response to IL-10 with regard to PGS-2 expression. Such reduced response would be evidence of disease. In accordance with these findings, compounds that inhibit prostaglandin production can be used to modulate the production of anti-inflammatory monokines in order to limit the immune response. The spontaneous expression of PGS-2 and the production of PGE2 by pre-diabetic monocytes may influence their function, limiting their ability to produce monokines that would have a potent effect on limiting the autoimmune response to the β-cells of the islet and therefore would promote the progression to diabetes.

monocytes [3] = test: PGE2 production by monocytes, specific ELISA; type: cell-based, human
Description: In addition to the expression of PGS-2, the production of PGE2 by monocytes from these same control and autoimmune individuals was examined.

monocytes [4] = test: TNFα and IL-1β in supernatants of monocytes cultured 24 hours; type: cell-based, human; conditions: monocytes cultured in vitro 24 hours
Experimental: The expression of PGS-2 can be induced by several factors including cytokines produced by monocytes such as TNFα and IL-1β. To evaluate the possibility that monocytes of pre-IDD subjects produce large quantities of IL-1 and TNFα which induces PGS-2, the levels of these cytokines were measured in supernatants of monocytes cultured in vitro for 24 hours from pre-IDD and healthy controls. […] The lower levels of these cytokines is consistent with the constitutive production of prostaglandins which suppress the production of both TNFα and IL-1β.

PGS-2 mRNA = PGS-2 mRNA expression in monocytes by RT-PCR; type: cell-based, human
Experimental: RT-PCR detection of PGS-2 mRNA in human monocytes. Human peripheral blood is collected in sterile green top 10 ml tubes. Assays are preferably performed with 5 ml or more of blood. The blood is then centrifuged on a ficoll gradient for 30 minutes at 1500 rpm. Monocytes are isolated to >80% purity by adherence for 2 hours to a plastic culture surface. Cells are then cultured overnight in RMPI-1640 plus endotoxin-free fetal calf sera. The cells are harvested after 16 hours of culture by cold Ca^++/Mg^++-free PBS, the cells are counted, and viability is assessed. Monocytes cultured in 10 μg/ml LPS serve as a positive control for each sample tested. The poly mRNA is then harvested from a standard 10^5 monocytes using a kit (Quiagen). The mRNA is then reverse transcribed in a standard reaction mixture. The cDNA is then amplified by PGS-2-specific primers designed by our laboratory using a standard […] for 45 cycles. The PCR product is then run out on agarose gels with known standards and the size confirmed. β-actin is used as an internal control in these reactions. The identity of RT-PCR products were confirmed by size and Southern blotting using a PGS-2-specific labeled internal probe.
Monocytes were examined from ICA+ humans with a high risk of developing IDD, individuals with established SLE and autoimmune thyroid disease, and healthy controls. A portion of the pre-diabetic ICA+ individuals examined are enrolled in an IDD trial where they receive daily subcutaneous insulin as a preventative therapy. Monocytes of humans without autoimmune disease infrequently express PGS-2 mRNA (12%), whereas monocytes from subjects who are at high risk for the development of IDD express PGS-2 at a highly significant frequency (84%, p<0.0001).

NOD mice [5] = test: PGE2 production by monocytes of NOD mice after IL-10 administration; type: in vivo, mouse; conditions: administration of IL-10

Molecule: COc1ccc2c(c1)c(CC(=O)O)c(C)n2C(=O)c1ccc(Cl)cc1 [indomethacin]
- development of IDD (NOD mice [1]; NOD mice treated at an early stage of disease): effectively blocks the development of IDD
- incidence of diabetes (NOD mice [1]; NOD mice, autoimmunity in final stages, indomethacin alone 15 μg/ml, untreated 77%): 22%

Molecule: CS(=O)(=O)Nc1ccc([N+](=O)[O-])cc1OC1CCCCC1 [NS-398]
- production of IL-1RA (monocytes [2]): promotes the production
- production of IL-10 (monocytes [2]): promotes the production
- production of PGE2 (monocytes [3]; monocytes of control and autoimmune individuals, FIG. 1): completely blocked
- PGS-2 production in vitro (monocytes [3]; monocytes of individuals at high risk for IDD): effectively blocks all PGS-2 production

Molecule: insulin
- TNFα and IL-1β levels, insulin-treated versus untreated pre-IDD (monocytes [4]): no significant differences
- PGE2 (monocytes [3]; monocytes of ICA+/PGS-2+ subjects on insulin therapy): 5805 ± 1544 pg/mL
- % PGS-2 + (PGS-2 mRNA; ICA+ pre-IDD subjects, insulin-treated, Table 6): 73.6** %
- % Positive (PGS-2 mRNA) (PGS-2 mRNA; ICA+ subjects on daily subcutaneous preventative insulin, Table 2): 71%
- PGS-2 mRNA or protein expression (PGS-2 mRNA; preventative insulin therapy in ICA+ subjects): does not appear to affect

B1: IL-10: monokine that tends to downregulate inflammation and immune responses (protein, UniProt P22301 19-178, looked up)
Interleukin-10: SPGQGTQSENSCTHFPGNLPNMLRDLRDAFSRVKTFFQMKDQLDNLLLKESLLEDFKGYLGCQALSEMIQFYLEEVMPQAENQDPDIKAHVNSLGENLKTLRLRLRRCHRFLPCENKSKAVEQVKNAFNKLQEKGIYKAMSEFDIFINYIEAYMTMKIRN
- PGE2 production by monocytes (NOD mice [5]): does not inhibit PGE2 production
